From publication PMC5923142, “Selection and Characterization of Rupintrivir-Resistant Norwalk Virus Replicon Cells In Vitro” (Antimicrobial Agents and Chemotherapy, 2018)
“Also recorded” adds a separate entry of the source.

Experiments:
[1] = system: GII mutant proteases; experiment: Cell-based FRET assay, GII mutant proteases (A105V, I109V, A105V/I109V); design: species or system norovirus GII.4 (DQ658413); details: A105V/I109V vs GII WT, HEK293T cells
Text: (§1) The generation of plasmids expressing norovirus protease from GI.1 (M87661), GII.4 (DQ658413), or GV (DQ285629) norovirus and FRET assay constructs has been described previously ([18]). The plasmids carrying GI, GII, and GV proteases with the A105V, I109V, or A105V/I109V mutation were generated from the wild-type (WT) protease constructs described above by the QuikChange site-directed mutagenesis method. Mutant MNV genomes for reverse genetics were generated by two-step PCR mutagenesis of the WT MNV genome (pT7 MNV 3RZ) construct as described previously ([27]). The primers used for generation of the plasmids are listed in Tables S1 and S2 in the supplemental material.
(§2) The YFP/CFP ratio was used to determine FRET efficiency, as described previously ([18], [40]). Briefly, HEK293T cells were plated into black 96-well cell culture microplates (Greiner Bio-One) at a density of 5 × 10^4 cells/well in 100 μl of DMEM containing 10% fetal bovine serum with or without various concentrations of rupintrivir and then incubated for 4 h in a CO2 incubator at 37°C. […] The plates were then analyzed on a SpectraMax i3 instrument in fluorescence mode, with excitation set at 434 nm and the reading emissions set at 477 nm (CFP) and 527 nm (YFP). The background fluorescence from wells transfected with pcDNA3.1 was determined and subtracted. […]

[2] = target: T1, MNV WT protease (polyprotein) (Norovirus, UniProt Q80J95); experiment: In vitro translation, MNV polyprotein processing, WT protease; assay type: biochemical, murine norovirus; details: 80 μM, rabbit reticulocyte lysate
T1 construct: in vitro-transcribed MNV full-length capped RNA containing either the WT or mutant proteases; made in house; host or cells: rabbit reticulocyte lysate (Flexi system, Promega), in vitro translation
T1 sequence (Q80J95 whole entry): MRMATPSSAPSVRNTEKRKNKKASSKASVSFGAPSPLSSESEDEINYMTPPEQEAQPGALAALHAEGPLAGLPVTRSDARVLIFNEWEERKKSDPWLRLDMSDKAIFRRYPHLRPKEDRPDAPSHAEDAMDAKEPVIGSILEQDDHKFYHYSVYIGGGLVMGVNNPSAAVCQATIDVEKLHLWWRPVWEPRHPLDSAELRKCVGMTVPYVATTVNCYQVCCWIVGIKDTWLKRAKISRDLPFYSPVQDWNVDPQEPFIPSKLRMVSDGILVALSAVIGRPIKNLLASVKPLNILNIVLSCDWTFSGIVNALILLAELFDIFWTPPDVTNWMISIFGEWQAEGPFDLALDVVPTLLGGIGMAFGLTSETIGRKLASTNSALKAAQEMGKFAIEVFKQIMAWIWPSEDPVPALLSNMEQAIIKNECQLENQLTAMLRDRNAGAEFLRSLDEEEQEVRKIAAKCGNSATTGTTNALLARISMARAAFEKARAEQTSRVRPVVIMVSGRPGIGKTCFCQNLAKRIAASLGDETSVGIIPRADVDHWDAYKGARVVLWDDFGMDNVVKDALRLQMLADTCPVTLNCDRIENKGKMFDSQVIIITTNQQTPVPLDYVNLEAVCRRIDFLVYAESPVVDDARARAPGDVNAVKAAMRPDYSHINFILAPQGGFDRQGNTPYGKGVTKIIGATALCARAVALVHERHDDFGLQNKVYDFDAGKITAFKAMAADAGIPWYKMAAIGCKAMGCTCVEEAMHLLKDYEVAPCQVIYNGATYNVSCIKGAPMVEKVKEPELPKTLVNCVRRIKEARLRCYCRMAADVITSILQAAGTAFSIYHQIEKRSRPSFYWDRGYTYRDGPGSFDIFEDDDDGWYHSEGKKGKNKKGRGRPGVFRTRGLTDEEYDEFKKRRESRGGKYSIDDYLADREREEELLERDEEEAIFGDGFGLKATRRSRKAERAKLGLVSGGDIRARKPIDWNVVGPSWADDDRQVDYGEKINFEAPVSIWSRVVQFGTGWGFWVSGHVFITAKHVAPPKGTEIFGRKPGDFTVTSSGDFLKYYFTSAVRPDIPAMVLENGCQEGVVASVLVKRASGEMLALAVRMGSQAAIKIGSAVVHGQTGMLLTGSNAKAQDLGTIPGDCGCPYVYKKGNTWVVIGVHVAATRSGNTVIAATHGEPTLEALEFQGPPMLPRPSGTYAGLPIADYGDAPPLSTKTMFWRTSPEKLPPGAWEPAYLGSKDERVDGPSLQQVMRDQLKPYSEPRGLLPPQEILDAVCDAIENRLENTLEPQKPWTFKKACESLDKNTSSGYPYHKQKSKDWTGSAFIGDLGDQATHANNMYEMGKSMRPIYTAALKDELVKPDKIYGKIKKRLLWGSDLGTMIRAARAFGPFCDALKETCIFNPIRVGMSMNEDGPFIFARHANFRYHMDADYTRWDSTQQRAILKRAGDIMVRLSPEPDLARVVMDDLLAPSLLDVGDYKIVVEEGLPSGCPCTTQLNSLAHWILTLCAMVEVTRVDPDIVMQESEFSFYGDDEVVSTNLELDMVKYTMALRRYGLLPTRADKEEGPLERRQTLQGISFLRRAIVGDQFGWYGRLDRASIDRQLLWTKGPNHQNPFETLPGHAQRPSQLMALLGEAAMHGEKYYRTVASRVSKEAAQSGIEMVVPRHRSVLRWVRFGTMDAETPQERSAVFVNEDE
Method: FIG 4 Impact of rupintrivir resistance-conferring mutations on MNV polyprotein processing in vitro. In vitro translation reactions were programmed with equal quantities of in vitro-transcribed MNV full-length capped RNA containing either the WT or mutant proteases in the presence and absence of 80 μM rupintrivir. The [^35S]methionine-labeled products were subsequently analyzed by SDS-PAGE and phosphorimaging analysis. The percentage of fully processed NS3, determined on the basis of the expected molecular mass of the proteins, was calculated and expressed relative to the total amount of viral protein produced.
In vitro translation reactions were performed using a Flexi rabbit reticulocyte lysate system (Promega). The reaction mixtures were prepared according to the manufacturer's instructions as described for capped mRNAs and programmed with 1 μg of RNA per 25-μl reaction mixture. The reaction mixtures were incubated at 30°C for 90 min prior to the addition of an equal volume of SDS-PAGE sample buffer. Samples were subsequently resolved on a 12.5% SDS-polyacrylamide gel before exposure to a phosphorimager screen.

[3] = in vitro; assay type: cell-based; details: human; HGT-NV cells, 72 h, resazurin; read-out: 50% cytotoxic concentration (CC50)
Method: The cell cytotoxicity of rupintrivir against HGT-NV cells was determined by a resazurin assay ([39]). Briefly, subconfluent HGT-NV cells in 96-well plates were treated with various concentrations of rupintrivir and then incubated for 72 h in a CO2 incubator at 37°C. After incubation, the supernatant was removed and the cells were washed with PBS, and then complete DMEM containing resazurin (0.1 mg/ml) was added to the cells. After 4 h of incubation, the optical density at 560 nm with a 620-nm optical density reference was determined by using a SpectraMax i3 instrument (Molecular Devices). The 50% cytotoxic concentration (CC50) values of rupintrivir were calculated using XLfit (version 5.3) software.

[4] = target: T2, GI WT protease (Norovirus, UniProt Q83883); experiment: Cell-based FRET assay, GI WT protease; design: species or system norovirus GI.1 (M87661); details: HEK293T cells, GI NS1/2-NS3 FRET substrate; read-out: 50% inhibitory concentration (IC50)
T2 construct: plasmids expressing norovirus protease from GI.1 (M87661); expressed in transfected cells; host or cells: HEK293T
T2 sequence (Q83883 1101-1281): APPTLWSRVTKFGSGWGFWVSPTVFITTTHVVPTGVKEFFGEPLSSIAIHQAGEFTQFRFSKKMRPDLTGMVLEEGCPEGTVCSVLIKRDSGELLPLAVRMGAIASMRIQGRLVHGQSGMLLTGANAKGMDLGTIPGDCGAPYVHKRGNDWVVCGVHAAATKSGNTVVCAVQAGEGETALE
Text: as §1, §2

[5] = target: T3, GV WT protease (Norovirus, UniProt Q80J95); experiment: Cell-based FRET assay, GV WT protease; design: species or system murine norovirus (MNV) GV (DQ285629); details: HEK293T cells, GV NS1/2-NS3 FRET substrate
T3 construct: plasmids expressing norovirus protease from GI.1 (M87661), GII.4 (DQ658413), or GV (DQ285629) norovirus; expressed in transfected cells; host or cells: HEK293T
T3 sequence (Q80J95 995-1177 limits assumed): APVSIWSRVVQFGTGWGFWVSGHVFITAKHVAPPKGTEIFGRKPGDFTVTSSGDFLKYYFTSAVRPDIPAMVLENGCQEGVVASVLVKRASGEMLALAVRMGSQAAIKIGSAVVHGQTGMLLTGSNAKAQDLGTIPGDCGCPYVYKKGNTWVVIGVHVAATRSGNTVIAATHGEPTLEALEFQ
Text: as §1, §2

[6] = system: GII protease; experiment: Cell-based FRET assay, GII WT protease; design: species or system norovirus GII.4 (DQ658413); details: compared with GI and GV WT proteases, HEK293T cells
Text: as §1, §2

[7] = system: recombinant WT MNV; experiment: Antiviral effect against recombinant WT MNV infection of BV-2 cells (TCID50); assay type: cell-based, murine norovirus; details: BV-2, 24 h
Method: BV-2 cells were infected with recombinant WT MNV or the MNV I109V mutant at an MOI of 0.1 or 1 for 1 h in the CO2 incubator at 37°C. After incubation, the supernatant was removed and the cells were washed twice with PBS, and then complete DMEM containing various concentrations of rupintrivir or 2CMC was added to the cells. After 24 h for incubation, the virus titers of the supernatant were determined by measurement of the TCID50. On the basis of the TCID50, the 90% effective concentration (EC90) values of rupintrivir and 2CMC were calculated using XLfit (version 5.3) software.

[8] = target: T4, GI A105V/I109V mutant protease (Norovirus, UniProt Q83883, A1205V/I1209V); experiment: Cell-based FRET assay, GI A105V/I109V protease; design: species or system norovirus GI.1 (M87661)
T4 construct: plasmids expressing norovirus protease from GI.1 (M87661); expressed in transfected cells; host or cells: HEK293T
T4 sequence (Q83883 1101-1281 A1205V/I1209V): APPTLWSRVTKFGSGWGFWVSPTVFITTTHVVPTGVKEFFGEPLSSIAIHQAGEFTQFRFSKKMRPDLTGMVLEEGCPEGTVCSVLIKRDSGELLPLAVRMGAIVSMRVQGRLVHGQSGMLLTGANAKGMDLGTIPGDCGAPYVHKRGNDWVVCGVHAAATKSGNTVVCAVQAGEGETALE
Text: as §1, §2

[9] = system: HRV2 N165T/E3G or N165T/A103V; design: method as in PMID 17908951; details: serial passage of HRV2 for 62 days; cited from earlier work

With `CCOC(=O)/C=C/[C@H](C[C@@H]1CCNC1=O)NC(=O)[C@@H](CC(=O)[C@@H](NC(=O)c1cc(C)on1)C(C)C)Cc1ccc(F)cc1` [rupintrivir, Rupintrivir] the “effect of substitutions on the IC50” value [1] was “no measurable effect; also recorded: no significant differences”, the “polyprotein processing (mature NS3)” value [2] was “prevented the cleavage of the polyprotein” and the CC50 [3] was greater than 100 µM. For the same compound, the IC50 [4] was 1.3 ± 0.4 µM, the IC50 [5] was 1 ± 0.1 µM and the “susceptibility of the protease to rupintrivir” value [6] was “substantially lower”. It also gave an EC90 ([7]; MOI 0.1 TCID50/cell) of 9.1 µM, an EC90 ([7]; MOI 1 TCID50/cell) of 8.9 µM and an IC50 ([8]; HEK293T cells, GI NS1/2-NS3 FRET substrate) of 6.6 ± 1.2 µM. The “fold increase in IC50” value ([8]; vs GI WT protease) was 5.1 fold and the fold reduced susceptibility [9] was 5 fold.
